Common to all, as to experiment: NCI anticancer screen, dose series, 48 h
The subject of assay [1] is UACC-62 melanoma.
Assay [2] relates to SF-268 CNS.
Assay [3] deals with UACC-257 melanoma.
Assay [4] deals with UO-31 renal.
For assay [5], the system named is CAKI-1 renal.
In assay [6] the test system is SW-620 colon.
Assay [7] relates to SK-MEL-2 melanoma.
The subject of assay [8] is NCI-H226 lung.
Assay [9] concerns NCI/ADR-RES ovarian.
In assay [10] the test system is SN12C renal.

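Results reflect a 48-hour exposure of cells in 96-well plates to compound at five concentrations. GI50: concentration for 50% inhibition of growth. The concentration for full growth arrest is given as TGI.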 Bounds are passed on as bounds.

Consider `c1ccc(C2ONC3=NCCN32)cc1` (configuration not stated), for which the GI50 in [1] was 39.4 µM; in assay [2], 54.3 µM; in [3] it was above 100 µM; in [4], 27.3 µM; in assay [5], 36.1 µM; in [6], 44.7 µM. Besides, the GI50 in assay [7] is above 100 µM; in assay [8] it was 25.3 µM; in assay [9], 25.8 µM. The TGI in assay [1], in assay [2], in [3], in assay [4], in assay [5] and in [6] was above 100 µM throughout. In addition, the TGI in assay [7] was above 100 µM; in [8], 78.6 µM; in assay [9], 88.6 µM.
Take `CCc1c2c(nc3ccc(OCc4ccc(B(O)O)cc4)cc13)-c1cc3c(c(=O)n1C2)COC(=O)[C@]3(O)CC`: the GI50 in [1] is below 0.01 µM; in assay [3] it was 0.0943 µM; in [4], 0.031 µM; in [5], below 0.0143 µM; in [6], 0.0247 µM; in assay [7] it was 0.63 µM. Besides, the GI50 in [8] was 0.0187 µM; in [10], below 0.013 µM; in assay [9], 0.0766 µM. Moreover, the TGI was 0.155 µM in [1]; 2.06 µM in assay [3]; 0.913 µM in assay [4]; 0.361 µM in [5]; above 78 µM in assay [6]; 0.339 µM in assay [8]. Besides, in assay [10], the TGI is above 100 µM.
Turning to `CC(C)=CCN1c2ccccc2NC(=O)CC1C` (configuration not stated), the TGI in assay [2], in assay [3], in assay [4], in assay [5], in assay [6] and in assay [7] was above 100 µM each time. For the same molecule, the TGI in assay [8] was above 100 µM; in assay [10], 81.2 µM; in [9], above 100 µM.
Take `CO/N=C(\COc1ccc2c(c1)[nH]c1ccccc12)c1ccc(OC)cc1`: the GI50 in [1] is 26.6 µM; in assay [2], 56.1 µM; in [3], 11.4 µM; in assay [4] it was above 100 µM; in [6], above 100 µM; in assay [8] it was above 100 µM. The GI50 in assay [10] was 57.9 µM; in assay [9], above 100 µM. Further, the TGI was above 100 µM in assay [1]; above 100 µM in assay [2]; 47.1 µM in assay [3]; above 100 µM in [4]; above 100 µM in [6]; above 100 µM in assay [8]. Besides, the TGI in assay [10] and in assay [9] was above 100 µM in each case.
For the molecule `CNC(=S)Nc1ccc(OC)c2ccccc12`, the TGI in [1], in assay [2], in [3], in assay [5], in assay [6] and in [10] was above 10 µM in each case. In assay [9], this molecule gave a TGI above 10 µM.
As to `Clc1ccc(-c2cn3ccnc3c(-c3ccc(Cl)cc3)n2)cc1`, the GI50 in assay [1] was 36.2 µM; in assay [2] it was 15.4 µM; in assay [3] it was 2.58 µM; in assay [5] it was 4.23 µM; in assay [6], 7.42 µM; in [7], 61.9 µM. The GI50 in assay [8] was 40.8 µM; in [10] it was 16.7 µM; in [9] it was 11.2 µM. The TGI was above 100 µM in [1]; above 100 µM in [2]; 33.9 µM in assay [3]; 46 µM in assay [5]; above 100 µM in [6]; above 100 µM in assay [7]. For the same molecule, the TGI is above 100 µM in assay [8], 95.1 µM in assay [10] and 47.5 µM in [9].
`C=CCc1c(Cl)nc(Cl)nc1Cl`: the TGI is 2.07 µM in [1]; 14.4 µM in assay [2]; 1.9 µM in assay [3]; 0.165 µM in assay [4]; 0.0367 µM in assay [5]; 0.583 µM in assay [6]. The results for the TGI in [8], in assay [10] and in assay [9] were 1.69 µM, 1.46 µM and above 49.4 µM, respectively.
As for `COc1cccc(-c2nc3cc(NC(=O)c4ccc(Cl)c(C#N)c4)ccc3o2)c1`, the GI50 in assay [1] is 3.29 µM; in assay [3] it was 3.81 µM; in assay [4], 3.95 µM; in assay [5] it was 23.3 µM; in assay [6] it was 4.11 µM; in [7], 9.21 µM. Further, the GI50 was 6.49 µM in assay [8], 3.1 µM in assay [10] and 1.42 µM in assay [9]. Moreover, the TGI is above 100 µM in assay [1]; above 100 µM in assay [3]; above 100 µM in assay [4]; above 100 µM in [5]; above 100 µM in [6]; 74.2 µM in assay [7]. Also, the TGI in assay [8] is above 100 µM; in [10], above 100 µM; in assay [9], 4.31 µM.
In the case of `NC(=O)CNC(=O)[C@@H]1CC(OCCC(=O)O)CN1C(=O)C1CCCN1C(=O)OCc1ccccc1` (some centres not stated), the TGI in [1], in assay [2], in [3], in assay [4], in [6] and in [7] was above 100 µM in each case. Besides, the TGI in assay [8], in assay [10] and in assay [9] was above 100 µM each time.
For the molecule `CCC1(O)C(=O)OCc2c1cc1n(c2=O)Cc2cc3ccccc3nc2-1` (configuration not stated), the TGI in assay [1] is 0.0379 µM; in assay [2], 15.2 µM; in assay [3], 3.57 µM; in assay [4], 0.156 µM; in assay [5], above 31.9 µM; in [6], above 41.2 µM. In addition, the TGI in [7] was 3.52 µM; in [9] it was 2.15 µM.
With `O=C1C=CC(=O)c2c1ccc1c3ccccc3n(Cc3ccc([N+](=O)[O-])cc3)c21`, the TGI in assay [1], in assay [2], in assay [3], in assay [4], in assay [5] and in assay [6] was above 100 µM each time. Moreover, the TGI in [8], in assay [10] and in assay [9] was above 100 µM each time.

The values are drawn from PubChem BioAssay (NCI).
